This is an account of results in paper PMC11571215, “Optimization of Antiproliferative Properties of Triimine Copper(II) Complexes” (Journal of Medicinal Chemistry, 2024).

One may read the IC50 as the concentration needed to halve the response being measured. A lower IC50 goes with inhibition by little substance.

Holding throughout (format): cell-based, human
Experiment [1] relates to HCT116-DoxR 3D spheroids. Briefly: MTS cell viability assay in 3D tumor spheroids. The note with it: spheroids with 6 days of growth, 48 h of exposure. As to the method: The research on tumor microenvironment (TME) has recently been gaining attention due to its important role in tumor growth, progression, and response to therapy.[57]−[60] Because of this, the development of 3D cancer models that mimic the interactions in the TME and the tumor structure and complexity is of great relevance to cancer research and drug development. […] The MTS assay was performed inHCT116-DoxR 3D spheroids with 6 days of growth (Figure S15 in ESI), followed by exposure to the complexes for 48 h. The results of cell viabilities and respective relative IC50 values calculated are provided in Figure 4 and Table 5, respectively.
(§1) HCT116-DoxR cells were seeded at 5 × 10^4 cells/mL in super low Attachment 96-well plates (NunclonSphera U-Shaped-Bottom Microplate, Thermo Fisher Scientific, Waltham, MA, USA) and incubated at 37 °C in a humidified atmosphere with 5% (v/v) CO2, to allow spheroids formation and growth.[60],[105] To perform the cell viability study, two methods were used: the MTS assay and the CellTox assay.
For MTS assay, HCT116DoxR spheroids grown for 6 to 8 days were used. […] The spheroids were further incubated for 4 h and subsequently transferred the medium to a 96-well flat-bottom plate for analysis using the Tecan Infinite M200 microplate reader (Tecan, Männedorf, Switzerland).
For orientation: Tetrazolium assays rely on reduction of a dye to a coloured formazan, in cell work by metabolically active cells.

Experiment [2] concerns BAX and BCL-2 proteins in HCT116-DoxR cells. Briefly: BAX and BCL-2 protein expression by Western Blot. The note with it: 48 h at IC50; normalized to 0.1% DMSO control and β-actin. Here is the method: 0.1% DMSO was used as a negative control and β-actin protein was used for the normalization of the total protein quantity.
HCT116-DoxR cells were seeded in a 25 cm^2 T-flask at a density of 2 × 10^6 cells/T-flask. […] Cells were incubated for 48 h and later were washed and collected using cold PBS 1× and a cell scraper. […]
After the storage period, the samples were submitted 5 ultrasound (Elma sonicator, D-78224 Singen/Htw, Germany) cycles on ice (2 min and 30 s on ultrasound followed by 1 min period on ice) and then centrifuged at 10,000 × g for 5 min. The supernatant was transferred to a 1.5 mL Eppendorf tube, and the total protein extracted was quantified with Pierce 660 nm Protein Assay kit (ThermoFisher Scientific, MA, USA).
In the SDS-PAGE analysis of BAX and BCL-2 proteins, 20 μg of protein was applied into a 10% polyacrylamide gel as well as NZYColour protein marker II and transferred to a 0.45 μm polyvinylidene fluoride (PVDF) membrane (GE Healthcare Life Sciences, Germany). […] Protein quantification was done by densitometry with ImageJ software.
For orientation: In western blotting, separated proteins are transferred to a membrane and probed.

In experiment [3] the test system is HCT116-DoxR 3D spheroids. Briefly: CellTox Green cytotoxicity assay in 3D spheroids. The conditions noted are these: 4.8 μM Cu1a or 5.8 μM Cu1b; 3, 24, 48, 72 h. As to the method:
Moreover, over time a detachment of death cells from the spheroids is observed (with green cells in the periphery of the outer region of the spheroids more clearly visualized at 72 h of exposure; Figure 5B and Supplementary Figure S16B,C).
as §1
For the CellTox assay, HCT116DoxR spheroids grown for 6 to 9 days were used. […] CellTox Green dye is an asymmetric cyanine dye that enters cells with compromised membrane integrity and binds to DNA, which enhances its fluorescence. […] Therefore, higher levels of fluorescence are associated with a higher number of death cells.[106] […] After 3, 24, 48, and 72 h of incubation, fluorescence images were acquired with Ti–U Eclipse inverted microscope (Nikon), with a FITC filter (excitation at 465–495 nm, in the blue region, and emission at 515–555 nm, in the green region).
The software ImageJ was used for fluorescence quantification in which the Corrected Total Cell Fluorescence (CTCF, eq 6) was determined. […]

`[Cl][Cu-3]12([Cl])[n+]3ccccc3-c3cc(-c4ccc5ccccc5c4)cc([n+]31)-c1cccc[n+]12` [Cu1b] yielded a concentration for half-maximal inhibition (IC50) in the experiment with HCT116-DoxR 3D spheroids [1] of 33.9 ± 0.4 µM. Moreover, the “BAX/BCL-2 ratio higher than control” value in experiment [2] is on record as 1.65 ×. Further, in the experiment on HCT116-DoxR 3D spheroids [3], the “cell death in spheroids (CellTox Green fluorescence)” value is “the increase of cell death”.

In the experiment with HCT116-DoxR 3D spheroids [1], `[Cl][Cu-3]12([Cl])[n+]3ccccc3-c3cc(-c4cccc5ccccc45)cc([n+]31)-c1cccc[n+]12` [Cu1a] returned a concentration for half-maximal inhibition (IC50) of 10.1 ± 0.22 µM. Further, in experiment [2], the “BAX/BCL-2 ratio higher than control” value came to 1.80 ×. Besides, in the experiment with HCT116-DoxR 3D spheroids [3], the “cell death in spheroids (CellTox Green fluorescence)” value is on record as “the increase of cell death”.
